Assays:
Type in all cases: cell-based
[1] = system: isolated stratum corneum; experiment: Keratolytic power, Test 1: counting corneocytes released after incubating patches of isolated stratum corneum with the test compound; details: 1% by weight solution in PBS + 0.1% Triton X100, pH 7.4, 37° C., 24 hours
Procedure: (§1) The keratolytic power of a number of compounds of this disclosure was studied. This test comprises counting corneocytes released following incubation of patches of isolated stratum corneum in the presence of the test compounds.
(§2) Stratum corneum isolated by trypsin/heat from surgical plasties was used. A number of different stratum corneum samples were used. Discs of 4 mm in diameter were punched out and placed at the bottom of a 96-well plate.
A 1% by weight solution of the compound of Example 3 was prepared in a PBS buffer supplemented with 0.1% of Triton X100. The pH of the solution was adjusted to 7.4.
(§3) 50 microliters of test solution or of control solution (PBS buffer supplemented with 0.1% of Triton X100) were added to each well. Incubation was carried out at 37° C. with stirring for 24 hours.
(§4) 10 microliters of solution were then withdrawn and were placed in a Malassez cell. The liberated corneocytes were counted under the microscope.
The results obtained are as follows, expressed as the number of liberated corneocytes per microliter, averaged over three tests. Corneocyte fragments were not counted.

[2] = system: isolated stratum corneum; experiment: Keratolytic power, Test 3: counting corneocytes released from isolated stratum corneum, PEG 8/ethanol vehicle; details: 2% by weight solution in water with 50% PEG 8 and 30% ethanol, 37° C., 24 hours; for number of liberated corneocytes per microliter, Sample 1: Sample 1, average over three tests; for number of liberated corneocytes per microliter, Sample 2: Sample 2, average over three tests; for number of liberated corneocytes per microliter, Average: average of Samples 1-2
Procedure: as §1, §2
A 2% by weight solution of the compound of Example 3, or 2-hydroxy-4-octanoylbenzoic acid (comparison), was prepared in an aqueous solution containing 50% by weight of polyethylene glycol (PEG 8) and 30% by weight of ethanol.
50 microliters of test solution or of control solution were added to each well. Incubation was carried out at 37° C. with stirring for 24 hours.
10 microliters of solution were then withdrawn and were placed in a Mallassez cell. The liberated corneocytes were counted under the microscope.
The results obtained are as follows, expressed as the number of liberated corneocytes per microliter, averaged over the three tests. Corneocyte fragments were not counted.

[3] = system: isolated stratum corneum; experiment: Keratolytic power, Test 2: counting corneocytes released from isolated stratum corneum, comparison with jasmonic acid; details: 1% by weight solution in PBS + 0.1% Triton X100, pH 7.4; 37° C., 24 hours
Procedure: as §1, §2
A 1% by weight solution of the compound of Example 1, or jasmonic acid (comparison), was prepared in a PBS buffer supplemented with 0.1% of Triton X100. The pH of the solution was adjusted to 7.4.
as §3, §4
The results obtained are as follows, expressed as the number of liberated corneocytes per microliter, averaged over three tests. Corneocyte fragments are not counted.

Row | SMILES | number of liberated corneocytes per microliter, Average ([1]; average of Samples 1-3) [per microliter] | number of liberated corneocytes per microliter, Sample 1 ([1]; stratum corneum Sample 1, average over three tests) [per microliter] | number of liberated corneocytes per microliter, Sample 2 ([1]; stratum corneum Sample 2, average over three tests) [per microliter] | number of liberated corneocytes per microliter, Sample 3 ([1]; stratum corneum Sample 3, average over three tests) [per microliter] | number of liberated corneocytes per microliter, Sample 1 [2] [per microliter] | number of liberated corneocytes per microliter, Sample 2 [2] [per microliter] | number of liberated corneocytes per microliter, Average [2] [per microliter] | number of liberated corneocytes per microliter, Average (3 tests per sample, 3 different samples) [3] [per microliter]
1 | CCCCC[C@H]1C(O)CC[C@@H]1CC(=O)O (mixture of isomers) [Example 3, (+/−)(1R,2R)-3-hydroxy-2-pentylcyclopentaneacetic acid] | 61 ± 33 | 28 ± 9 | 56 ± 7 | 101 ± 11 | 2 ± 3 | 3 ± 1 | 2.5 ± 2 | –
2 | CCCCCCCC(=O)c1ccc(C(=O)O)c(O)c1 [2-Hydroxy-4-octanoylbenzoic acid, 2-hydroxy-4-octanoylbenzoic acid, reference compound] | – | – | – | – | 3 ± 3 | 4 ± 3 | 3.5 ± 3 | –
3 | CC/C=C\C[C@H]1C(O)CC[C@@H]1CC(=O)O (mixture of isomers) [Example 1, (+/−)(1R,2R)-3-hydroxy-2-[(2Z)-2-pentenyl]cyclopentaneacetic acid] | – | – | – | – | – | – | – | 26 ± 7
4 | CC/C=C\C[C@H]1C(=O)CC[C@@H]1CC(=O)O (racemic) [Jasmonic acid, (+/−)(1R,2R)-3-oxo-2-[(2Z)-2-pentyl]cyclopentaneacetic acid] | – | – | – | – | – | – | – | 15 ± 5
